Eight compounds from patent publication US8008230B2, “Synergistic antifungal DDAC compositions” (priority 2004, dated 2011) can be followed below.

One test deals with Botrytis cinerea. Briefly: Poison plate assay (MIC and synergy index). The test is classed as cell-based, Botrytis cinerea strain BC03019. The settings on record: 168 h. The protocol:
Activity against fungal growth was determined with the poison plate assay. A calculated amount of a stock solution (containing either DDAC, boscalid, fenhexamid, pyrimethanil, thiophanate-methyl, triflumizole, azoxystrobin, dimoxystrobin, picoxystrobin, or pyraclostrobin in a concentration of 500 ppm in dimethyl sulfoxide) was pipetted into 24-well plates in order to reach a final test concentration ranging from 0.21 to 5 ppm in 12 steps when mixed with a culture medium. These culture media were either Glucose Agar (GA) (10 g glucose, 1.5 g K2HPO4, 2 g KH2PO4, 1 g (NH4)2SO4, 0.5 g MgSO4 and 12.5 g agar in 1 liter deionised water) when pyrimethanil was used as the test substance or Potato Dextrose Agar (PDA) (4 g potato infusion, 20 g bacto dextrose and 15 g bacto agar in 1 liter deionised water) for any of the other test substances. The medium was inoculated with 2 μl of a spore/mycelium suspension. The 24-well plates were kept in the dark at a temperature of 22° C., and a relative humidity of 75% and evaluated for fungal growth after one week.
The following fungi species were used in the poison plate assay: Penicillium digitatum strain Sas (sensitive to demethylase inhibiting fungicides), Penicillium digitatum strain LDW930223 (reduced sensitivity to demethylase inhibiting fungicides), Penicillium italicum strain H17 (reduced sensitivity to demethylase inhibiting fungicides), Botrytis cinerea strain BC03019, Geotrichum candidum, or Gloeosporium album strain A18.
The lowest concentration in ppm of each test compound or mixture of test compounds sufficient to inhibit visible growth was taken as the minimum inhibitory concentration (MIC). When no fungal growth was observed, the abbreviation “ng” was used in Table 2. Synergy was calculated using the Synergy Index method described by von Kull et al. (F. C. Kull, P. C. Eismann, H. D. Sylvestrowicz, R. L. Mayer, 1961, Applied Microbiology 9: 538-541).
Synergistic Index (SI)=(x/m)+(y/n) • m and n are the MIC values of test substances 1 and 2 respectively, when applied alone • x and y are the respective quantities of test substances 1 and 2 in mixtures which also cause the complete inhibition of fungal growth, i.e. x and y equal [quantity of test substances 1 and 2, resp., in the mixture (e.g. 0.8 and 0.2, 066 and 0.33 . . . )] multiplied by [MIC-value of the mixture]. […] A result smaller than 1 indicates a synergistic effect of the combination.

The next test concerns Penicillium digitatum. Put plainly: Curative treatment by dipping of lemons artificially inoculated with Penicillium digitatum. The test is classed as in vivo. The following applies: read-out: % Efficacy. The protocol: Aqueous test solutions were prepared with concentrations of 10 μg/ml, 100 μg/ml and 1000 μg/ml of DDAC (I); and 500 μg/ml of imazalil (II-a). These test solutions were used to prepare mixtures comprising component (I) and component (II-a) with a concentration respectively of 1000 μg/ml of (I) and 500 μg/ml of (II-a); 100 μg/ml of (I) and 500 μg/ml of (II-a) and 10 μg/ml of (I) and 500 μg/ml of (II-a).
Lemons were artificially inoculated with a 10 mm diameter cork borer dipped in a spore suspension containing 10^6 cfu/ml of Penicillium digitatum. The lemons were treated after 24 hours by submerging for 30 seconds in one of the test solutions.
Treated and untreated lemons were incubated for 14 days in a dark climate room at 20° C. After the incubation period, the diameter of fungal growth was measured and % efficacy (growth inhibition) versus control was calculated. Fungal growth was quantified by measuring the distance, in mm, between the perimeter of the 10 mm diameter inoculation ring and the perimeter of the damaged zone.
Synergy was considered to occur when the observed effect, or measured activity, of a combination of both components was greater than the corresponding Ec value.

Where [1] appears, read: % DDAC + % test substance 0 + 100 (test substance alone), Potato Dextrose Agar, one week, read-out: MIC (minimum inhibitory concentration in ppm total a.i.).

Where two headings read alike, the source gives them in different places.

On to `O=C(Nc1ccccc1-c1ccc(Cl)cc1)c1cccnc1Cl` [boscalid, 2-chloro-N-(4′-chlorobiphenyl-2-yl)-nicotinamide], for which the MIC in the test with Botrytis cinerea (setting [1]) is above 5 µg/mL.

Regarding `COC(=O)NC(=S)Nc1ccccc1NC(=S)NC(=O)OC` [thioph. methyl, 4,4′-(o-phenylene)bis(3-thioallophanate)], the MIC with Botrytis cinerea (setting [1]) is 2.11 µg/mL.

Consider `CC1(C(=O)Nc2ccc(O)c(Cl)c2Cl)CCCCC1` [fenhexamid, 2′,3′-dichloro-4′-hydroxy-1-methylcyclohexanecarboxanilide], for which the MIC in the test on Botrytis cinerea (setting [1]) came out at 1.58 µg/mL.

As to `CCCCCCCCCC[N+](C)(C)CCCCCCCCCC.[Cl-]` [DDAC, didecyl dimethyl ammonium chloride], in the test on Penicillium digitatum, the Emax at 10 µg/mL came to 0%, the Emax at 100 µg/mL was found to be 0% and the Emax at 1000 µg/mL amounted to 22%. Further, the MIC in the test with Botrytis cinerea (read-out: MIC (minimum inhibitory concentration in ppm total a.i.), % DDAC + % test substance 100 + 0 (DDAC alone), Glucose Agar (pyrimethanil series), one week) is 5 µg/mL. Further, the MIC with Botrytis cinerea (read-out: MIC (minimum inhibitory concentration in ppm total a.i.), % DDAC + % test substance 100 + 0 (DDAC alone), Potato Dextrose Agar, one week) was above 5 µg/mL.

For the compound `Cc1cc(C)nc(Nc2ccccc2)n1` [pyrimethanil, 4,6-dimethyl-N-phenyl-2-pyrimidinamine], the MIC in the test with Botrytis cinerea (% DDAC + % test substance 0 + 100 (test substance alone), Glucose Agar, one week, read-out: MIC (minimum inhibitory concentration in ppm total a.i.)) turned out to be 2.11 µg/mL.

Take `CCCOC/C(=N\c1ccc(Cl)cc1C(F)(F)F)n1ccnc1` [triflumizole, (E)-4-chloro-α,α,α-trifluoro-N-(1-imidazol-1-yl-2-propoxyethylidene)-o-toluidine]: the MIC in the test with Botrytis cinerea (read-out: MIC (minimum inhibitory concentration in ppm total a.i.), % DDAC + % test substance 0 + 100 (test substance alone), Potato Dextrose Agar, one week) is above 5 µg/mL.

On to `COC(=O)N(OC)c1ccccc1COc1ccn(-c2ccc(Cl)cc2)n1` [pyraclostrobin, methyl N-(2-[1-(4-chlorophenyl)-1H-pyrazol-3-yloxymethyl]phenyl](N-methoxy)carbamate], for which the MIC with Botrytis cinerea (setting [1]) is above 5 µg/mL.

As to `C=CCOC(Cn1ccnc1)c1ccc(Cl)cc1Cl` (stereo not drawn) [Imazalil (IIa)], the Emax at 500 µg/mL in the test with Penicillium digitatum (test concentration 500 μg/ml, lemon, dipped 24 h after inoculation, 14 days incubation) worked out at 78%.
